# PubChem BioAssay (NCI)
#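 96-well plates; 48 h exposure; 5 concentrations. Endpoints by linear interpolation between flanking doses. Not reached: highest tested concentration assigned. TGI marks complete inhibition of growth.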
# What was measured:
# Experiment in all cases: inhibition of tumour cell growth, NCI panel, 48 h
# HOP-62 NSCLC = tested on: HOP-62 NSCLC
# NCI-H23 lung = tested on: NCI-H23 lung
# IGROV1 ovarian = tested on: IGROV1 ovarian
# TK-10 renal = tested on: TK-10 renal
# A549 NSCLC = tested on: A549 NSCLC
# U251 CNS = tested on: U251 CNS
# COLO 205 colon = tested on: COLO 205 colon
# SK-MEL-2 melanoma = tested on: SK-MEL-2 melanoma
# SK-MEL-28 melanoma = tested on: SK-MEL-28 melanoma
# UACC-257 melanoma = tested on: UACC-257 melanoma
# T-47D breast = tested on: T-47D breast
# HS 578T breast = tested on: HS 578T breast
# A498 renal = tested on: A498 renal
# NCI/ADR-RES ovarian = tested on: NCI/ADR-RES ovarian
# SF-268 CNS = tested on: SF-268 CNS
# DU-145 prostate = tested on: DU-145 prostate
# HCT-15 colon = tested on: HCT-15 colon
# CCRF-CEM leukemia = tested on: CCRF-CEM leukemia
# MALME-3M melanoma = tested on: MALME-3M melanoma
# CAKI-1 renal = tested on: CAKI-1 renal
# EKVX NSCLC = tested on: EKVX NSCLC
# M14 melanoma = tested on: M14 melanoma
# RPMI-8226 leukemia = tested on: RPMI-8226 leukemia
# LOX IMVI melanoma = tested on: LOX IMVI melanoma
# UO-31 renal = tested on: UO-31 renal
# OVCAR-4 ovarian = tested on: OVCAR-4 ovarian
# K-562 leukemia = tested on: K-562 leukemia
# OVCAR-5 ovarian = tested on: OVCAR-5 ovarian
# NCI-H226 lung = tested on: NCI-H226 lung
# MCF7 breast = tested on: MCF7 breast
# SN12C renal = tested on: SN12C renal
# SW-620 colon = tested on: SW-620 colon
# NCI-H522 lung = tested on: NCI-H522 lung
# NCI-H460 lung = tested on: NCI-H460 lung
# KM12 colon = tested on: KM12 colon
# PC-3 prostate = tested on: PC-3 prostate
# UACC-62 melanoma = tested on: UACC-62 melanoma
# MOLT-4 leukemia = tested on: MOLT-4 leukemia
# SF-539 CNS = tested on: SF-539 CNS
# SK-MEL-5 melanoma = tested on: SK-MEL-5 melanoma
# SNB-75 CNS = tested on: SNB-75 CNS
# SK-OV-3 ovarian = tested on: SK-OV-3 ovarian
# RXF 393 renal = tested on: RXF 393 renal
# OVCAR-3 ovarian = tested on: OVCAR-3 ovarian
# BT-549 breast = tested on: BT-549 breast
# MDA-MB-435 = tested on: MDA-MB-435
# MDA-MB-231 breast = tested on: MDA-MB-231 breast
# HCT-116 colon = tested on: HCT-116 colon
# SF-295 CNS = tested on: SF-295 CNS
# MDA-N = tested on: MDA-N
# SNB-19 CNS = tested on: SNB-19 CNS
# HT29 colon = tested on: HT29 colon
# 786-0 renal = tested on: 786-0 renal
# ACHN renal = tested on: ACHN renal
# OVCAR-8 ovarian = tested on: OVCAR-8 ovarian
# HL-60(TB) leukemia = tested on: HL-60(TB) leukemia
# SR leukemia = tested on: SR leukemia
# HCC-2998 colon = tested on: HCC-2998 colon
smiles,measurement,setting,value
Cc1nnc2sc(NN)nn12,TGI,HOP-62 NSCLC,> 100 µM
same,TGI,NCI-H23 lung,> 100 µM
same,TGI,IGROV1 ovarian,> 100 µM
same,TGI,TK-10 renal,> 100 µM
same,TGI,A549 NSCLC,> 100 µM
same,TGI,U251 CNS,> 100 µM
same,TGI,COLO 205 colon,> 100 µM
same,TGI,SK-MEL-2 melanoma,> 100 µM
same,TGI,SK-MEL-28 melanoma,> 100 µM
same,TGI,UACC-257 melanoma,> 100 µM
same,TGI,T-47D breast,> 100 µM
same,TGI,HS 578T breast,> 100 µM
same,TGI,A498 renal,> 100 µM
same,TGI,NCI/ADR-RES ovarian,> 100 µM
same,TGI,SF-268 CNS,> 100 µM
same,TGI,DU-145 prostate,> 100 µM
same,TGI,HCT-15 colon,> 100 µM
same,TGI,CCRF-CEM leukemia,> 100 µM
same,TGI,MALME-3M melanoma,> 100 µM
same,TGI,CAKI-1 renal,> 100 µM
same,TGI,EKVX NSCLC,> 100 µM
same,TGI,M14 melanoma,> 100 µM
same,TGI,RPMI-8226 leukemia,> 100 µM
same,TGI,LOX IMVI melanoma,> 100 µM
same,TGI,UO-31 renal,> 100 µM
same,TGI,OVCAR-4 ovarian,> 100 µM
same,TGI,K-562 leukemia,> 100 µM
same,TGI,OVCAR-5 ovarian,> 100 µM
same,TGI,NCI-H226 lung,> 100 µM
same,TGI,MCF7 breast,> 100 µM
same,TGI,SN12C renal,> 100 µM
same,TGI,SW-620 colon,> 100 µM
same,TGI,NCI-H522 lung,> 100 µM
same,TGI,NCI-H460 lung,> 100 µM
same,TGI,KM12 colon,> 100 µM
same,TGI,PC-3 prostate,> 100 µM
same,TGI,UACC-62 melanoma,> 100 µM
same,TGI,MOLT-4 leukemia,31.6 µM
same,TGI,SF-539 CNS,> 100 µM
same,TGI,SK-MEL-5 melanoma,> 100 µM
same,TGI,SNB-75 CNS,> 100 µM
same,TGI,SK-OV-3 ovarian,> 100 µM
same,TGI,RXF 393 renal,> 100 µM
same,TGI,OVCAR-3 ovarian,> 100 µM
same,TGI,BT-549 breast,> 100 µM
same,TGI,MDA-MB-435,> 100 µM
same,TGI,MDA-MB-231 breast,> 100 µM
same,TGI,HCT-116 colon,> 100 µM
same,TGI,SF-295 CNS,> 100 µM
same,TGI,MDA-N,> 100 µM
same,TGI,SNB-19 CNS,> 100 µM
same,TGI,HT29 colon,> 100 µM
same,TGI,786-0 renal,> 100 µM
same,TGI,ACHN renal,> 100 µM
same,TGI,OVCAR-8 ovarian,> 100 µM
CCOC(=O)C(C)NC(=O)C(C)NC(=O)C(C)NC(=O)C(C)NC(=O)C(C)NC(=O)OCc1ccccc1 (configuration not stated),TGI,HOP-62 NSCLC,> 100 µM
same,TGI,NCI-H23 lung,> 100 µM
same,TGI,IGROV1 ovarian,> 100 µM
same,TGI,TK-10 renal,> 100 µM
same,TGI,A549 NSCLC,> 100 µM
same,TGI,U251 CNS,> 100 µM
same,TGI,COLO 205 colon,> 100 µM
same,TGI,SK-MEL-2 melanoma,> 100 µM
same,TGI,SK-MEL-28 melanoma,> 100 µM
same,TGI,UACC-257 melanoma,> 100 µM
same,TGI,HL-60(TB) leukemia,> 100 µM
same,TGI,T-47D breast,> 100 µM
same,TGI,HS 578T breast,> 100 µM
same,TGI,NCI/ADR-RES ovarian,> 100 µM
same,TGI,SF-268 CNS,> 100 µM
same,TGI,DU-145 prostate,> 100 µM
same,TGI,HCT-15 colon,> 100 µM
same,TGI,CCRF-CEM leukemia,> 100 µM
same,TGI,MALME-3M melanoma,> 100 µM
same,TGI,CAKI-1 renal,> 100 µM
same,TGI,EKVX NSCLC,> 100 µM
same,TGI,M14 melanoma,> 100 µM
same,TGI,RPMI-8226 leukemia,> 100 µM
same,TGI,LOX IMVI melanoma,> 100 µM
same,TGI,UO-31 renal,> 100 µM
same,TGI,SR leukemia,> 100 µM
same,TGI,OVCAR-4 ovarian,> 100 µM
same,TGI,K-562 leukemia,> 100 µM
same,TGI,OVCAR-5 ovarian,> 100 µM
same,TGI,NCI-H226 lung,> 100 µM
same,TGI,MCF7 breast,> 100 µM
same,TGI,SN12C renal,> 100 µM
same,TGI,SW-620 colon,> 100 µM
same,TGI,NCI-H522 lung,> 100 µM
same,TGI,NCI-H460 lung,> 100 µM
same,TGI,HCC-2998 colon,> 100 µM
same,TGI,KM12 colon,> 100 µM
same,TGI,PC-3 prostate,> 100 µM
same,TGI,UACC-62 melanoma,> 100 µM
same,TGI,MOLT-4 leukemia,> 100 µM
same,TGI,SF-539 CNS,> 100 µM
same,TGI,SK-MEL-5 melanoma,> 100 µM
same,TGI,SNB-75 CNS,> 100 µM
same,TGI,SK-OV-3 ovarian,> 100 µM
same,TGI,RXF 393 renal,> 100 µM
same,TGI,OVCAR-3 ovarian,> 100 µM
same,TGI,BT-549 breast,> 100 µM
same,TGI,MDA-MB-435,> 100 µM
same,TGI,MDA-MB-231 breast,> 100 µM
same,TGI,HCT-116 colon,> 100 µM
same,TGI,SF-295 CNS,> 100 µM
same,TGI,MDA-N,> 100 µM
same,TGI,SNB-19 CNS,> 100 µM
same,TGI,HT29 colon,> 100 µM
same,TGI,786-0 renal,> 100 µM
same,TGI,ACHN renal,> 100 µM
same,TGI,OVCAR-8 ovarian,> 100 µM
